Experimental data taken from patent US8895585B2, “Nicotinamide derivative or salt thereof” (FUJIFILM Corporation, priority 2010, dated 2014).

biological target: T1, glutathione S-transferase (GST)-fused full-length human Syk protein (Homo sapiens, UniProt P43405); assay: Syk enzyme assay; type: biochemical; conditions: Syk enzyme assay, Test Example 1; read-out: IC50 of Syk-inhibitory activity
T1 construct: (GST)-fused full-length human Syk protein; GST (glutathione S-transferase); purchased Carna Biosciences
Method in brief: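 Baculovirus-expressed enzyme (1.2 ng) was preincubated with compound in HEPES pH 7.0/MgCl2/DTT buffer, 2 min shaking then 13 min at room temperature. Biotin-EDPDYEWPSA-NH2 (0.4 μM final) and ATP (27 μM final) were added for 40 min at room temperature. EDTA stop, streptavidin-XL/PT66-K TR-FRET at 615/665 nm gave IC50.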

Row | SMILES | IC50
1 | COCCOc1ncc(Nc2nc(N[C@@H]3CCCC[C@@H]3N)c(F)cc2C(N)=O)cc1-n1ccnn1 [Example 006-518, 6-(((1R,2S)-2-aminocyclohexyl)amino)-5-fluoro-2-((6-(2-methoxyethoxy)-5-(1H-1,2,3-triazol-1-yl)pyridin-3-yl)amino)nicotinamide] | 50 to 100 nM
2 | NC(=O)c1cc(F)c(N[C@@H]2CCCC[C@@H]2N)nc1Nc1cnc(N2CCOCC2)c(-n2cccn2)c1 [Example 006-527, 6-(((1R,2S)-2-aminocyclohexyl)amino)-5-fluoro-2-((6-morpholino-5-(1H-pyrazol-1-yl)pyridin-3-yl)amino)nicotinamide] | 50 to 100 nM
3 | COc1cc(Nc2nc(NC3CN(C(=O)OCc4ccccc4)CCC3N)c(F)cc2C(N)=O)ccn1 [Example 006-529, (3R,4S)-benzyl 4-amino-3-((5-carbamoyl-3-fluoro-6-((2-methoxypyridin-4-yl)amino)pyridin-2-yl)amino)piperidine-1-carboxylate) and (3S,4R)-benzyl-4-amino-3-((5-carbamoyl-3-fluoro-6-((2-methoxypyridin-4-yl)amino)pyridin-2-yl)amino)piperidine-1-carboxylate(=1:1)] | 100 to 1000 nM
4 | COc1cc(Nc2nc(NC3CCN(C(=O)OCc4ccccc4)CC3N)c(F)cc2C(N)=O)ccn1 [Example 006-530, (3S,4R)-benzyl 3-amino-4-((5-carbamoyl-3-fluoro-6-((2-methoxypyridin-4-yl)amino)pyridin-2-yl)amino)piperidine-1-carboylate and (3R,4S)-benzyl 3-amino-4-((5-carbamoyl-3-fluoro-6-((2-methoxypyridin-4-yl)amino)pyridin-2-yl)amino)piperidine-1-carboxylate(=1:1)] | < 10 nM
5 | NC(=O)c1cc(F)c(N[C@@H]2CCCC[C@@H]2N)nc1Nc1cnc(N2CCOCC2)c(-n2nccn2)c1 [Example 006-533, 6-(((1R,2S)-2-aminocyclohexyl)amino)-5-fluoro-2-((6-morpholino-5-(2H-1,2,3-triazol-2-yl)pyridin-3-yl)amino)nicotinamide] | 10 to 50 nM
6 | NC(=O)c1cc(F)c(N[C@@H]2CCCC[C@@H]2N)nc1Nc1cnc(N2CCOCC2)c(-n2ccnn2)c1 [Example 006-534, 6-(((1R,2S)-2-aminocyclohexyl)amino)-5-fluoro-2-((6-morpholino-5-(1H-1,2,3-triazol-1-yl)pyridin-3-yl)amino)nicotinamide] | 100 to 1000 nM
7 | NC(=O)c1cc(F)c(N[C@@H]2CCCC[C@@H]2N)nc1Nc1ccc(-n2ccnc2)nc1 [Example 006-535, 2-((6-(1H-imidazole-1-yl)pyridin-3-yl)amino)-6-(((1R,2S)-2-aminocyclohexyl)amino)-5-fluoronicotinamide] | 50 to 100 nM
8 | Cc1nccn1-c1ccc(Nc2nc(N[C@@H]3CCCC[C@@H]3N)c(F)cc2C(N)=O)cn1 [Example 006-536, 6-(((1R,2S)-2-aminocyclohexyl)amino)-5-fluoro-2-((6-(2-methyl-1H-imidazol-1-yl)pyridin-3-yl)amino)nicotinamide] | 100 to 1000 nM
9 | CCc1nn(C)c2ccc(Nc3nc(N[C@H](CC(C)C)[C@H](C)N)c(F)cc3C(N)=O)cc12 [Example 006-538, 6-(((2S,3R)-2-amino-5-methylhexan-3-yl)amino)-2-((3-ethyl-1-methyl-1H-indazol-5-yl)amino)-5-fluoronicotinamide] | < 10 nM
10 | CCc1nn(CC)c2ccc(Nc3nc(N[C@H](CC(C)C)[C@H](C)N)c(F)cc3C(N)=O)cc12 [Example 006-540, 6-(((2S,3R)-2-amino-5-methylhexan-3-yl)amino)-2-((1,3-diethyl-1H-indazol-5-yl)amino)-5-fluoronicotinamide] | < 10 nM
11 | Cn1nc(N2CCOCC2)c2cc(Nc3nc(N[C@@H]4CCCC[C@@H]4N)c(F)cc3C(N)=O)ccc21 [Example 006-560, 6-(((1R,2S)-2-aminocyclohexyl)amino)-5-fluoro-2-((1-methyl-3-morpholino-1H-indazol-5-yl)amino)nicotinamide] | 10 to 50 nM
12 | C[C@H](N)[C@@H](CC1CC1)Nc1nc(Nc2ccc3c(c2)c(N2CCOCC2)nn3C)c(C(N)=O)cc1F [Example 006-561, 6-(((2R,3S)-3-amino-1-cyclopropylbutan-2-yl)amino)-5-fluoro-2-((1-methyl-3-morpholino-1H-indazol-5-yl)amino)nicotinamide] | < 10 nM
13 | Cc1ncc(Nc2nc(N[C@@H]3CCCC[C@@H]3N)c(F)cc2C(N)=O)cc1Cl [Example 006-567, 6-(((1R,2S)-2-aminocyclohexyl)amino)-2-((5-chloro-6-methylpyridin-3-yl)amino)-5-fluoronicotinamide] | 10 to 50 nM
14 | CCc1ncc(Nc2nc(N[C@@H]3CCCC[C@@H]3N)c(F)cc2C(N)=O)cc1Cl [Example 006-568, 6-(((1R,2S)-2-aminocyclohexyl)amino)-2-((5-chloro-6-ethylpyridin-3-yl)amino)-5-fluoronicotinamide] | 50 to 100 nM
15 | NC(=O)c1cc(F)c(N[C@@H]2CCCC[C@@H]2N)nc1Nc1cnc(C2CC2)c(Cl)c1 [Example 006-569, 6-(((1R,2S)-2-aminocyclohexyl)amino)-2-((5-chloro-6-cyclopropylpyridin-3-yl)amino)-5-fluoronicotinamide] | 10 to 50 nM
16 | CCOc1ncc(Nc2nc(N[C@@H]3CCCC[C@@H]3N)c(F)cc2C(N)=O)cc1Cl [Example 006-570, 6-(((1R,2S)-2-aminocyclohexyl)amino)-2-((5-chloro-6-ethoxypyridin-3-yl)amino)-5-fluoronicotinamide] | 10 to 50 nM
17 | CCOc1ncc(Nc2nc(N[C@@H]3CCCC[C@@H]3N)c(F)cc2C(N)=O)cc1C1CC1 [Example 006-573, 6-(((1R,2S)-2-aminocyclohexyl)amino)-2-((5-cyclopropyl-6-ethoxypyridin-3-yl)amino)-5-fluoronicotinamide] | 10 to 50 nM
18 | Cc1nn(C)c2ccc(Nc3nc(N[C@H](C4CC4)[C@H](C)N)c(F)cc3C(N)=O)cc12 [Example 006-582, 6-(((1R,2S)-2-amino-1-cyclopropylpropyl)amino)-2-((1,3-dimethyl-1H-indazol-5-yl)amino)-5-fluoronicotinamide] | < 10 nM
19 | Cn1nc(-n2cccn2)c2cc(Nc3nc(N[C@@H]4CCCC[C@@H]4N)c(F)cc3C(N)=O)ccc21 [Example 006-594, 6-(((1R,2S)-2-aminocyclohexyl)amino)-5-fluoro-2-((1-methyl-3-(1H-pyrazol-1-yl)-1H-indazol-5-yl)amino)nicotinamide] | < 10 nM
20 | CC(C)C[C@@H](Nc1nc(Nc2ccc3c(c2)c(-n2cccn2)nn3C)c(C(N)=O)cc1F)[C@H](C)N [Example 006-595, 6-(((2S,3R)-2-amino-5-methylhexan-3-yl)amino)-5-fluoro-2-((1-methyl-3-(1H-pyrazol-1-yl)-1H-indazol-5-yl)amino)nicotinamide] | < 10 nM

Second part, the compound after the results:

Row | IC50 | SMILES
21 | 50 to 100 nM | NC(=O)c1cc(F)c(N[C@@H]2CCCC[C@@H]2N)nc1Nc1cnc(O)c(-n2nccn2)c1 [Example 006-504, 6-(((1R,2S)-2-aminocyclohexyl)amino)-5-fluoro-2-((6-hydroxy-5-(2H-1,2,3-triazol-2-yl)pyridin-3-yl)amino)nicotinamide]
22 | 50 to 100 nM | C[C@H](N)[C@H](Nc1nc(Nc2cnc3c(c2)OCO3)c(C(N)=O)cc1F)C1CC1 [Example 006-514, 2-([1,3]dioxolo[4,5-b]pyridin-6-ylamino)-6-(((1R,2S)-2-amino-1-cyclopropylpropyl)amino)-5-fluoronicotinamide]
23 | 10 to 50 nM | NC(=O)c1cc(F)c(N[C@@H]2CCCC[C@@H]2N)nc1Nc1cnc(N2CCOCC2)c(C2CC2)c1 [Example 006-528, 6-(((1R,2S)-2-aminocyclohexyl)amino)-2-((5-cyclopropyl-6-morpholinopyridin-3-yl)amino)-5-fluoronicotinamide]
24 | 100 to 1000 nM | COc1cc(Nc2nc(N[C@@H]3COCC[C@@H]3N)c(F)cc2C(N)=O)ccn1 [Example 006-532, 6-(((3S,4S)-4-aminotrahydro-2H-pyran-3-yl)amino)-5-fluoro-2-((2-methoxypyridin-4-yl)amino)nicotinamide]
25 | < 10 nM | CC(C)C[C@@H](Nc1nc(Nc2ccc3c(c2)c(C(C)C)nn3C)c(C(N)=O)cc1F)[C@H](C)N [Example 006-542, 6-(((2S,3R)-2-amino-5-methylhexan-3-yl)amino)-5-fluoro-2-((3-isopropyl-1-methyl-1H-indazol-5-yl)amino)nicotinamide]
26 | < 10 nM | CCn1nc(C2CC2)c2cc(Nc3nc(N[C@H](CC4CC4)[C@H](C)N)c(F)cc3C(N)=O)ccc21 [Example 006-549, 6-(((2R,3S)-3-amino-1-cyclopropylbutan-2-yl)amino)-2-((3-cyclopropyl-1-ethyl-1H-indazol-5-yl)amino)-5-fluoronicotinamide]
27 | < 10 nM | CC(C)C[C@@H](Nc1nc(Nc2ccc3c(c2)c(N2CCOCC2)nn3C)c(C(N)=O)cc1F)[C@H](C)N [Example 006-562, 6-(((2S,3R)-2-amino-5-methylhexan-3-yl)amino)-5-fluoro-2-((1-methyl-3-morpholino-1H-indazol-5-yl)amino)nicotinamide]
28 | 100 to 1000 nM | COCCOc1ncc(Nc2nc(N[C@@H]3CCCC[C@@H]3N)c(F)cc2C(N)=O)cc1N1CCOCC1 [Example 006-566, 6-(((1R,2S)-2-aminocyclohexyl)amino)-5-fluoro-2-((6-(2-methoxyethoxy)-5-morpholinopyridin-3-yl)amino)nicotinamide]
29 | 50 to 100 nM | COCCOc1ncc(Nc2nc(N[C@@H]3CCCC[C@@H]3N)c(F)cc2C(N)=O)cc1Cl [Example 006-571, 6-(((1R,2S)-2-aminocyclohexyl)amino)-2-((5-chloro-6-(2-methoxyethoxy)pyridin-3-yl)amino)-5-fluoronicotinamide]
30 | 10 to 50 nM | COCCOc1ncc(Nc2nc(N[C@@H]3CCCC[C@@H]3N)c(F)cc2C(N)=O)cc1C1CC1 [Example 006-574, 6-(((1R,2S)-2-aminocyclohexyl)amino)-2-((5-cyclopropyl-6-(2-methoxyethoxy)pyridin-3-yl)amino)-5-fluoronicotinamide]
